We go through 2 compounds from US4000151A, “Triazolyl benzophenone compounds” (priority 1975, dated 1976).

The ED50 is the midpoint of the dose-response relation.

What all share (type): in vivo
Experiment [1] has as its system mice. Description: Chimney test (mice back up and out of a vertical glass cylinder within 30 seconds). Conditions: Mus musculus. The procedure: (§1) Sedative effects of 8-chloro-1-methyl-6-phenyl-4H-s-triazolo[ 4,3-a][ 1,4]benzodiazepine (a final product conforming to formula VII) are shown by the following tests in mice: […]
Chimney test: [Med. Exp. 4, 145 (1961)]: The effective intraperitoneal dosage for 50% of the mice (ED50) is 0.09 mg./kg.; the oral ED50 is 0.6 mg./kg. The test determines the ability of mice to back up and out of a vertical glass cylinder within 30 seconds. At the effective dosage, 50% of the mice failed doing it.

The subject of experiment [2] is mice. As to the kind of experiment: Dish test (mice remaining in Petri dish for more than 3 minutes). Conditions: Mus musculus; Table II, route not given. The procedure: as §1
Dish test: Mice in Petri dishes (10 cm. diameter, 5 cm. high, partially embedded in wood shavings), climb out in a very short time, when not treated. Mice remaining in the dish for more than 3 minutes indicates tranquilization. ED50 equals the dose of the test compound at which 50% of the mice remain in the dish.

The test system of experiment [3] is mice. As to the kind of experiment: Pedestal test (mice staying on the pedestal for more than 1 minute). Conditions: Mus musculus; Table II, route not given. The procedure: as §1
Pedestal test; The untreated mouse leaves the pedestal in less than a minute to climb back to the floor of the standard mouse box. Tranquilized mice will stay on the pedestal for more than 1 minute. The ED50 (oral administration) is 0.9 mg./kg.

In experiment [4] the test system is mice. As to the kind of experiment: Nicotine antagonism test. Conditions: Mus musculus; Table II, route not given. The procedure: Nicotine antagonism test: Mice in a group of 6 are injected with the test compound (8-chloro-1-methyl-6-phenyl-4H-s-triazolo[ 4,3-a][ 1,4]benzodiazepine). Thirty minutes later the mice, including control (untreated) mice are injected with nicotine salicylate (2 mg./kg.). The control mice show overstimulation, i.e., (1) running convulsions followed by (2) tonic extensor fits, followed by (3) death.

With `Cc1nncn1-c1ccc(Cl)cc1C(=O)c1ccccc1` [5-Chloro-2-(3-methyl-4H-1,2,4-triazol-4-yl)benzophenone], the ED50 in the experiment on mice [1] (Table II, route not given, read-out: ED50 Ch) worked out at 28 mg/kg; with mice [2], 23 mg/kg; in the experiment on mice [3] it was 20 mg/kg; in the experiment on mice [4], 20 mg/kg.

For `Cc1nnc2n1-c1ccc(Cl)cc1C(c1ccccc1)=NC2` [8-Chloro-1-methyl-6-phenyl-4H-s-triazolo[4,3-a][1,4]benzodiazepine], the 50% effective dose (ED50) in the experiment on mice [1] (mice, oral, read-out: oral ED50, chimney test) was 0.6 mg/kg.
